28 compounds from patent US10189854B2, “Substituted pyrimidine compounds” (Grünenthal GmbH, priority 2014, dated 2019) can be followed below.

A value given as a limit tells only on which side of the number the result lay.

Sequence of human PDE4B1 (Q07343 whole entry): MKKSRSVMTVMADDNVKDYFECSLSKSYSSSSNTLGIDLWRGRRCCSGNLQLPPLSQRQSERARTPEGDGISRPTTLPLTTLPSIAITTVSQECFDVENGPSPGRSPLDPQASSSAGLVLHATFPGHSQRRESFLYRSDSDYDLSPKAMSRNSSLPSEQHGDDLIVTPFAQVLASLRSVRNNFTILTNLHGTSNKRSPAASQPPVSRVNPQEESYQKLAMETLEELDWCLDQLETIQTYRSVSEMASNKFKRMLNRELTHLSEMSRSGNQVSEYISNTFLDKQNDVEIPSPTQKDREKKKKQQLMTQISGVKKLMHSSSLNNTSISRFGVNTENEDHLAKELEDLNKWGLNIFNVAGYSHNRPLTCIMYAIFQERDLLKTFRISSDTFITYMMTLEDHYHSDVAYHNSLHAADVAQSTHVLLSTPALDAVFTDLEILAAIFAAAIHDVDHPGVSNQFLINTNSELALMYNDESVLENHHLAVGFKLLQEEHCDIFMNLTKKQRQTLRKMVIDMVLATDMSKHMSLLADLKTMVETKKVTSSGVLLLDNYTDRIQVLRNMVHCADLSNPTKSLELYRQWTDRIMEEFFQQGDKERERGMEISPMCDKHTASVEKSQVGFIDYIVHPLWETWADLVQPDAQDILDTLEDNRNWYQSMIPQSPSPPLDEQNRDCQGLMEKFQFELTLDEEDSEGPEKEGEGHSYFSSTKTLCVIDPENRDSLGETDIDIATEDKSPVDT

The assay has as its target human PDE4B1 (Homo sapiens (Human), UniProt Q07343). Kind of assay: cAMP HTRF assay to determine the activity of hPDE4B1. The class given is biochemical. To be noted: IC50 inhibition of PDE4B; human recombinant PDE4B1, cAMP HTRF assay. As to the method: Biological Testing cAMP HTRF® Assay to Determine the Activity of hPDE4B1
The inhibiting effect of the compounds on the enzyme activity of human PDE4B1 was measured by the quantification of 5′-adenosine monophosphate (5′-AMP), which is formed from 3′,5′-cyclic adenosine monophosphate (cAMP). Human recombinant enzyme, expressed in Sf9 cells, and the HTRF (homogeneous time-resolved fluorescence) detection method were used in the assay.
The test compound or water (control) was mixed with the human recombinant PDE4B1 enzyme (4.8 U) in a buffer consisting of 44.4 mM tris-HCl, 5.28 mM MgCl2, 2.64 mM DTT and 0.044% Tween 20 (pH 7.8). After adding the cAMP enzyme substrate (final concentration 40 nM), the mixture was incubated for 30 minutes at room temperature. Then a fluorescence acceptor (Dye2 marked with cAMP), a fluorescence donor (anti-cAMP antibody marked with a europium cryptate) and the non-specific phosphodiesterase inhibitor IBMX (3-isobutyl-1-methylxanthine; final concentration 1 mM) were added. After 60 min the fluorescence transfer, which correlates with the amount of remaining cAMP, was measured with a microplate reader (Rubystar, BMG) at λex=337 nm, λem=620 nm and λem=665 nm. The enzyme activity was calculated from the quotient formed from the measured signal at 665 nm and that at 620 nm. The result was expressed as the percentage inhibition of enzyme activity of the control (without PDE4 inhibitor). The enzyme was omitted for measurement of the basal control.
[N. Saldou et al., Comparison of recombinant human PDE4 isoforms: interaction with substrate and inhibitors, Cell. Signal. Vol. 10, No. 6, 427-440, 1998]. Several compounds according to the invention are tested in the above-described assay.
On the technique in general: In TR-FRET formats the signal depends on donor and acceptor labels being close together.
The IC50 is the concentration that gives 50% inhibition. Turning to “Morpholin-4-yl-[1-(5-pyridazin-4-yl-pyrimidin-2-yl)-spiro[1,2-dihydro-indole-3,1′-cyclopropane]-6-yl]-methanone [Compound 200]”, the IC50 is < 0.1 µM.
As for `Cn1nc(C(F)(F)F)cc1-c1cnc(N2CC3(CC3)c3ccc(C(=O)N4CCOCC4)cc32)nc1` [Compound 134, [1-[5-[2-Methyl-5-(trifluoromethyl)-2H-pyrazol-3-yl]-pyrimidin-2-yl]-spiro[1,2-dihydro-indole-3,1′-cyclopropane]-6-yl]-morpholin-4-yl-methanone], the figure is 0.1 to 1 µM; as for `COc1cccc(-c2cnc(N3CC4(CC4)c4ccc(C(=O)N5CCOCC5)cc43)nc2)c1` [Compound 48, [1-[5-(3-Methoxyphenyl)-pyrimidin-2-yl]-spiro[1,2-dihydro-indole-3,1′-cyclopropane]-6-yl]-morpholin-4-yl-methanone], < 0.1 µM.
For `Cn1cc(-c2cnc(N3CC4(CC4)c4ccc(C(=O)N5CCOCC5)cc43)nc2)cn1` [Compound 138, [1-[5-(1-Methyl-1H-pyrazol-4-yl)-pyrimidin-2-yl]-spiro[1,2-dihydro-indole-3,1′-cyclopropane]-6-yl]-morpholin-4-yl-methanone] the value was < 0.1 µM; for `O=C(c1ccc2c(c1)N(c1ncc(-c3ccc(Cl)s3)cn1)CC21CC1)N1CCOCC1` [Compound 131, [1-[5-(5-Chloro-thiophen-2-yl)-pyrimidin-2-yl]-spiro[1,2-dihydro-indole-3,1′-cyclopropane]-6-yl]-morpholin-4-yl-methanone], 0.1 to 1 µM.
As for `O=C(c1ccc2c(c1)N(c1ncc(-c3ccccc3F)cn1)CC21CC1)N1CC(O)C1` [Compound 36, [1-[5-(2-Fluorophenyl)-pyrimidin-2-yl]-spiro[1,2-dihydro-indole-3,1′-cyclopropane]-6-yl]-(3-hydroxy-azetidin-1-yl)-methanone], the figure is 0.1 to 1 µM.
With `CCN(C)C(=O)c1ccc2c(c1)N(c1ncc(-c3ccccc3F)cn1)CC21CC1` [Compound 90, N-Ethyl-1-[5-(2-fluorophenyl)-pyrimidin-2-yl]-N-methyl-spiro[1,2-dihydro-indole-3,1′-cyclopropane]-6-carboxylic acid amide], the IC50 lay within 0.1 to 1 µM.
As for `O=C(c1ccc2c(c1)N(c1ncc(-c3ccsc3Cl)cn1)CC21CC1)N1CCOCC1` [Compound 132, [1-[5-(2-Chloro-thiophen-3-yl)-pyrimidin-2-yl]-spiro[1,2-dihydro-indole-3,1′-cyclopropane]-6-yl]-morpholin-4-yl-methanone], the figure is < 0.1 µM; as for `CNC(=O)c1ccc2c(c1)N(c1ncc(-c3ccccc3F)cn1)CC21CC1` [Compound 61, 1-[5-(2-Fluorophenyl)-pyrimidin-2-yl]-N-methyl-spiro[1,2-dihydro-indole-3,1′-cyclopropane]-6-carboxylic acid amide], 0.1 to 1 µM; as for `CN(C(=O)c1ccc2c(c1)N(c1ncc(-c3ccccc3F)cn1)CC21CC1)c1ccncc1` [Compound 88, 1-[5-(2-Fluorophenyl)-pyrimidin-2-yl]-N-methyl-N-pyridin-4-yl-spiro[1,2-dihydro-indole-3,1′-cyclopropane]-6-carboxylic acid amide], 0.1 to 1 µM.
For `NC(=O)C1CCN(C(=O)c2ccc3c(c2)N(c2ncc(-c4ccccc4F)cn2)CC32CC2)CC1` [Compound 216, 1-[1-[5-(2-Fluorophenyl)-pyrimidin-2-yl]-spiro[1,2-dihydro-indole-3,1′-cyclopropane]-6-carbonyl]-piperidine-4-carboxylic acid amide] the value was 1 to 10 µM; for `CN(CCO)C(=O)c1ccc2c(c1)N(c1ncc(-c3cnn(C)c3)cn1)CC21CC1` [Compound 199, N-(2-Hydorxy-ethyl)-N-methyl-1-[5-(1-methyl-1H-pyrazol-4-yl)-pyrimidin-2-yl]-spiro[1,2-dihydro-indole-3,1′-cyclopropane]-6-carboxylic acid amide], < 0.1 µM; for `NC(=O)c1ccc(-c2cnc(N3CC4(CC4)c4ccc(C(=O)N5CCOCC5)cc43)nc2)s1` [Compound 152, 5-[2-[6-(Morpholine-4-carbonyl)-spiro[1,2-dihydro-indole-3,1′-cyclopropane]-1-yl]-pyrimidin-5-yl]-thiophene-2-carboxylic acid amide], 0.1 to 1 µM.
For `CN(C)[C@@H]1CCN(C(=O)c2ccc3c(c2)N(c2ncc(-c4ccccc4F)cn2)CC32CC2)C1` [Compound 77, [(3R)-3-Dimethylamino-pyrrolidin-1-yl]-[1-[5-(2-fluorophenyl)-pyrimidin-2-yl]-spiro[1,2-dihydro-indole-3,1′-cyclopropane]-6-yl]-methanone] the value was 0.1 to 1 µM; for `N#CCCN1CCN(C(=O)c2ccc3c(c2)N(c2ncc(-c4ccccc4F)cn2)CC32CC2)CC1` [Compound 76, 3-[4-[1-[5-(2-Fluorophenyl)-pyrimidin-2-yl]-spiro[1,2-dihydro-indole-3,1′-cyclopropane]-6-carbonyl]-piperazin-1-yl]-propionitrile], 0.1 to 1 µM; for `CN(C)C(=O)c1ccc2c(c1)N(c1ncc(-c3ccccc3)cn1)CC21CC1` [Compound 124, N,N-Dimethyl-1-(5-phenyl-pyrimidin-2-yl)-spiro[1,2-dihydro-indole-3,1′-cyclopropane]-6-carboxylic acid amide], < 0.1 µM.
In the case of `CN(C)CCN(C)C(=O)c1ccc2c(c1)N(c1ncc(-c3ccccc3F)cn1)CC21CC1` [Compound 99, N-[2-(Dimethylamino)ethyl]-1-[5-(2-fluorophenyl)-pyrimidin-2-yl]-N-methyl-spiro[1,2-dihydro-indole-3,1′-cyclopropane]-6-carboxylic acid amide], the IC50 was < 0.1 µM.
Consider `COc1ccccc1-c1cnc(N2CC3(CC3)c3ccc(C(=O)N4CCOCC4)cc32)nc1` [Compound 31, [1-[5-(2-Methoxyphenyl)-pyrimidin-2-yl]-spiro[1,2-dihydro-indole-3,1′-cyclopropane]-6-yl]-morpholin-4-yl-methanone], for which the IC50 is < 0.1 µM.
For `Cc1nc(C)c(-c2cnc(N3CC4(CC4)c4ccc(C(=O)N5CCOCC5)cc43)nc2)s1` [Compound 154, [1-[5-(2,4-Dimethyl-thiazol-5-yl)-pyrimidin-2-yl]-spiro[1,2-dihydro-indole-3,1′-cyclopropane]-6-yl]-morpholin-4-yl-methanone] the value was < 0.1 µM; for “[1-[5-(6-Fluoro-pyrimidin-4-yl)-pyrimidin-2-yl]-spiro[1,2-dihydro-indole-3,1′-cyclopropane]-6-yl]-morpholin-4-yl-methanone [Compound 205]”, < 0.1 µM; for `O=C(O)C1CCN(C(=O)c2ccc3c(c2)N(c2ncc(-c4ccccc4F)cn2)CC32CC2)CC1` [Compound 215, 1-[1-[5-(2-Fluorophenyl)-pyrimidin-2-yl]-spiro[1,2-dihydro-indole-3,1′-cyclopropane]-6-carbonyl]-piperidine-4-carboxylic acid], 1 to 10 µM.
For `Cc1ccccc1-c1cnc(N2CC3(CC3)c3ccc(C(=O)N4CCOCC4)cc32)nc1` [Compound 12, Morpholin-4-yl-[1-(5-o-tolyl-pyrimidin-2-yl)-spiro[1,2-dihydro-indole-3,1′-cyclopropane]-6-yl]-methanone] the value was < 0.1 µM.
As for `CCN(CC)C(=O)c1ccc2c(c1)N(c1ncc(-c3ccccc3F)cn1)CC21CC1` [Compound 47, N,N-Diethyl-1-[5-(2-fluorophenyl)-pyrimidin-2-yl]-spiro[1,2-dihydro-indole-3,1′-cyclopropane]-6-carboxylic acid amide], the figure is 0.1 to 1 µM; as for `O=C(c1ccc2c(c1)N(c1ncc(-c3cccc(Cl)c3)cn1)CC21CC1)N1CCOCC1` [Compound 51, [1-[5-(3-Chlorophenyl)-pyrimidin-2-yl]-spiro[1,2-dihydro-indole-3,1′-cyclopropane]-6-yl]-morpholin-4-yl-methanone], 0.1 to 1 µM; as for `O=C(c1ccc2c(c1)N(c1ncc(-c3ccccc3)cn1)CC21CC1)N1CCCC1` [Compound 59, [1-(5-Phenyl-pyrimidin-2-yl)-spiro[1,2-dihydro-indole-3,1′-cyclopropane]-6-yl]-pyrrolidin-1-yl-methanone], < 0.1 µM.
Consider `O=C1CN(C(=O)c2ccc3c(c2)N(c2ncc(-c4ccccn4)cn2)CC32CC2)CCN1` [Compound 180, 4-[1-(5-Pyridin-2-yl-pyrimidin-2-yl)-spiro[1,2-dihydro-indole-3,1′-cyclopropane]-6-carobnyl]-piperazin-2-one], for which the IC50 was < 0.1 µM.
As for `CN(CCO)C(=O)c1ccc2c(c1)N(c1ncc(-c3cccc(F)c3)cn1)CC21CC1` [Compound 129, 1-[5-(3-Fluorophenyl)-pyrimidin-2-yl]-N-(2-hydroxy-ethyl)-N-methyl-spiro[1,2-dihydro-indole-3,1′-cyclopropane]-6-carboxylic acid amide], the figure is < 0.1 µM; as for “[1-[5-(2-Methyl-pyrimidin-4-yl)-pyrimidin-2-yl]-spiro[1,2-dihydro-indole-3,1′-cyclopropane]-6-yl]-morpholin-4-yl-methanone [Compound 185]”, < 0.1 µM.
